Values after ≈ are worked out from the molar mass of the structure shown. Where two headings read alike, the source gives them in different places.

The test system of one test is E. fecium. The test can be described thus: Minimal Inhibitory Concentration (MIC) determination, 96 well plates. In kind it is cell-based, Enterococcus fecium. As to conditions: for MIC: Enterococcus, read-out: MIC (µg/ml) E. fecium. The procedure: (§1) The following methods were used to characterize representative compounds. Minimal Inhibitory Concentration (MIC) determinations. MIC values were determined in 96 well plates, with bacterial growth monitored at OD 600 nm in 200µl following an initial bacterial seeding at approximately 1x10^5 colony forming units (CFU)/ml. Each drug is evaluated at five concentrations, with five data points at each dilution. MIC values (µg/ml) were determined against actively growing cultures in Heart-Brain Infusion (HBI) medium. Cell growth in cultures supplemented with a test compound was calculated as a percent of control at OD 600 nm after 16 to 18 hours at 37°C. […] Polymerase IIIC (Pol IIIC) assay. DNA polymerase activity (or inhibition thereof) was measured in a 96-well plate format. B. subtilis Pol IIIC was isolated as described by Hammond and Brown (Protein Expr. Purif., 3: 65-70 (1992)). Each 25 µl assay contained 30 mM Tris, pH 7.5, 10 mM magnesium acetate, 4 mM dithiothreitol, 20% glycerol, with 25 µM dATP, dCTP, dGTP and 10 µM dTTP (^3H-labelled at 1.44 Ci/mmole) and 0.4 mg/ml activated calf thymus DNA as substrates, as described previously (see Barnes et al, op. cit). Assays were initiated by the addition of 0.025 to 0.06 units of enzyme 1 unit is the amount required to incorporate 250 pmoles of [^3H] dTMP in a standard assay), incubated for 10 minutes at 30°C and terminated by the addition of 200 µl of cold 10% trichloroacetic acid (TCA),10 mM sodium pyrophosphate. Precipitated labeled DNA was collected on glass fiber filter plates, washed, dried, and counted in a liquid scintillation counter. Determination of Ki values. DNA polymerase activity was measured in a 96-well plate format in the absence of dGTP or dATP, depending on the structure of the test compound. Each 25 µl assay contained 30 mM Tris, pH 7.5, 10 mM magnesium acetate, 4 mM dithiothreitol, 20% glycerol, with 25 µM dATP, dCTP, and 10 µM dTTP (^3H-labelled at 1.44 Ci/mmole) and 0.4 mg/ml activated calf thymus DNA as substrates, as described previously. […] Assays were initiated by the addition of 0.025 to 0.06 units of enzyme (1 unit is the amount required to incorporate 250 pmoles of [^3H] dTMP in a standard assay), incubated for 10 minutes at 30 °C and terminated by the addition of 200 µl of cold 10% trichloroacetic acid, 10 mM sodium pyrophosphate. Precipitated labeled DNA was collected on glass fiber filter plates, washed, dried, and counted in a liquid scintillation counter. Ki is the concentration of test compound that reduces the control polymerase IIIC activity by 50 percent.
(§2) MIC values were determined for the Gram positive bacteria Bacillus subtilis, Staphylococcus aureus (two strains), Enterococcus fecalis, Enterococcus fecium, and for the Gram negative bacterium Escherichia coli.

For a further test, the system named is E. fecalis. Described as above. In kind it is cell-based, Enterococcus fecalis. As to conditions: for MIC: Enterococcus, read-out: MIC (µg/ml) E. fecalis. The procedure: as §1, §2
In the next test the target is T1, B. subtilis Pol IIIC (Bacillus subtilis, UniProt P13267).
T1 construct: made in house
As to the kind of experiment: Polymerase IIIC (Pol IIIC) assay, determination of Ki values. It counts as biochemical. As to conditions: assay in absence of dGTP or dATP, Ki is the concentration that reduces control polymerase IIIC activity by 50 percent. The procedure:
as §1

A further test relates to B. subtilis. The test can be described thus: Minimal Inhibitory Concentration (MIC) determination, 96 well plates. In kind it is cell-based, Bacillus subtilis. As to conditions: for MIC: Bacillus subtilis, read-out: MIC (µg/ml) B. subtilis. The procedure:
as §1, §2

Another test deals with E. coli. Described as above. In kind it is cell-based, Escherichia coli. As to conditions: HBI medium, 16 to 18 hours at 37°C; for MIC: Escherichia coli, read-out: MIC (µg/ml) E. coli. The procedure: (§3) The following methods were used to characterize representative compounds. Minimal Inhibitory Concentration (MIC) determinations. MIC values were determined in 96 well plates, with bacterial growth monitored at OD 600 nm in 200µl following an initial bacterial seeding at approximately 1x10^5 colony forming units (CFU)/ml. Each drug is evaluated at five concentrations, with five data points at each dilution. MIC values (µg/ml) were determined against actively growing cultures in Heart-Brain Infusion (HBI) medium. Cell growth in cultures supplemented with a test compound was calculated as a percent of control at OD 600 nm after 16 to 18 hours at 37°C. This plate format conserves test compound and provides precise, quantitative data with low standard deviation determinations. Polymerase IIIC (Pol IIIC) assay. DNA polymerase activity (or inhibition thereof) was measured in a 96-well plate format. B. subtilis Pol IIIC was isolated as described by Hammond and Brown (Protein Expr. Purif., 3: 65-70 (1992)). Each 25 µl assay contained 30 mM Tris, pH 7.5, 10 mM magnesium acetate, 4 mM dithiothreitol, 20% glycerol, with 25 µM dATP, dCTP, dGTP and 10 µM dTTP (^3H-labelled at 1.44 Ci/mmole) and 0.4 mg/ml activated calf thymus DNA as substrates, as described previously (see Barnes et al, op. cit). Assays were initiated by the addition of 0.025 to 0.06 units of enzyme 1 unit is the amount required to incorporate 250 pmoles of [^3H] dTMP in a standard assay), incubated for 10 minutes at 30°C and terminated by the addition of 200 µl of cold 10% trichloroacetic acid (TCA),10 mM sodium pyrophosphate. Precipitated labeled DNA was collected on glass fiber filter plates, washed, dried, and counted in a liquid scintillation counter. Determination of Ki values. DNA polymerase activity was measured in a 96-well plate format in the absence of dGTP or dATP, depending on the structure of the test compound. Each 25 µl assay contained 30 mM Tris, pH 7.5, 10 mM magnesium acetate, 4 mM dithiothreitol, 20% glycerol, with 25 µM dATP, dCTP, and 10 µM dTTP (^3H-labelled at 1.44 Ci/mmole) and 0.4 mg/ml activated calf thymus DNA as substrates, as described previously. To each well were added 2 µl of compound solution to give final concentrations ranging from 20 - 0.027 µg/ml in the assay. Assays were initiated by the addition of 0.025 to 0.06 units of enzyme (1 unit is the amount required to incorporate 250 pmoles of [^3H] dTMP in a standard assay), incubated for 10 minutes at 30 °C and terminated by the addition of 200 µl of cold 10% trichloroacetic acid, 10 mM sodium pyrophosphate. Precipitated labeled DNA was collected on glass fiber filter plates, washed, dried, and counted in a liquid scintillation counter. Ki is the concentration of test compound that reduces the control polymerase IIIC activity by 50 percent.
as §2

Another test deals with S.aureus (Smith). The description is as above. It counts as cell-based, Staphylococcus aureus. As to conditions: for MIC: Staphylococcus aureus, read-out: MIC (µg/ml) S.aureus (Smith). The procedure:
as §1, §2

Another test concerns S. aureus. Described as above. As to conditions: for MIC: Staphylococcus aureus, read-out: MIC (µg/ml) S. aureus. In kind it is cell-based, Staphylococcus aureus. The procedure: as §3, §2
Where [1] appears, read: HBI medium, 16 to 18 hours at 37°C.

T1 sequence (P13267 whole entry): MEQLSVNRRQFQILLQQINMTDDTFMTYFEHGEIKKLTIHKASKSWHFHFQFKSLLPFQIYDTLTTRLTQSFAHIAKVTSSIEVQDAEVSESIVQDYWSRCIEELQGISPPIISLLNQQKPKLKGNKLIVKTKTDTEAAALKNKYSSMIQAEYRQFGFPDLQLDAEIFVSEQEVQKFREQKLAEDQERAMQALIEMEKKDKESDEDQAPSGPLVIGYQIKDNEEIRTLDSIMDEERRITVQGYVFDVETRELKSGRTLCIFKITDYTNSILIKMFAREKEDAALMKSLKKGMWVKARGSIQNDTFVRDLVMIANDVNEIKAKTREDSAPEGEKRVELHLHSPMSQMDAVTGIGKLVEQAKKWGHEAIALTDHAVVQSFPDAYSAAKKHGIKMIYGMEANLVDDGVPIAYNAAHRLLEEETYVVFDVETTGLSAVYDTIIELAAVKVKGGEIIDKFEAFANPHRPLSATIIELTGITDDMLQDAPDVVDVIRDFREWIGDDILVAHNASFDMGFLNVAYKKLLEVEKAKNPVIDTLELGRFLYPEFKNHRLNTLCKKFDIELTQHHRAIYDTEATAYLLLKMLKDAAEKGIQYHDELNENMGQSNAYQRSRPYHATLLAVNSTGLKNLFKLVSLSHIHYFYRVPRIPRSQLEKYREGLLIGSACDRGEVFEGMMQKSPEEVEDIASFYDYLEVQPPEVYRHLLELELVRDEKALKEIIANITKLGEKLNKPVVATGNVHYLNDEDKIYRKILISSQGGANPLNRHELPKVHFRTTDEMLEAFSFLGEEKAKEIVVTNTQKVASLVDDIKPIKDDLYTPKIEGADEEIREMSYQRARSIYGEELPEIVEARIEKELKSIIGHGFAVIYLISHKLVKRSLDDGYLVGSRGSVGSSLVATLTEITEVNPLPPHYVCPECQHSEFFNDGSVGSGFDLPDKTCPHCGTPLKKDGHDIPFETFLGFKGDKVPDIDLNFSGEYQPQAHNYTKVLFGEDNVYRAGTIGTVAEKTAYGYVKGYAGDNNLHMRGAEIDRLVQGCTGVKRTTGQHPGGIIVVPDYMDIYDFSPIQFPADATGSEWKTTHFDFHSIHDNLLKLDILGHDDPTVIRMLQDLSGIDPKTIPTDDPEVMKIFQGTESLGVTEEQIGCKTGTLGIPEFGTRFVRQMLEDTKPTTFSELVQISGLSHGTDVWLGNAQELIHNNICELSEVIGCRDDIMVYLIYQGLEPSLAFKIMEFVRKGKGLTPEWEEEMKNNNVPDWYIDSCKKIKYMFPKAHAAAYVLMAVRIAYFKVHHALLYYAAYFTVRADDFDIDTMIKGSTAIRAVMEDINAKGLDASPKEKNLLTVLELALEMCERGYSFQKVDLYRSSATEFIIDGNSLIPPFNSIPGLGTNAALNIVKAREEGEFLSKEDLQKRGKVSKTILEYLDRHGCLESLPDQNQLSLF

The Ki is a dissociation constant, usually derived from enzyme kinetics or from competition with a known ligand. For the compound “3-{5-[1-(1-ethyl-3-carboxy-4-oxo-6,8-difluoro-7-quinolyl)-3-(1,3-diazabicyclononyl)]pentyl}-6-(3-ethyl-4-methylanilino)uracil [Compound 88]”, the “MIC (µg/ml) E. fecium” value against E. fecium (setting [1]) was found to be 5 µg/mL. Besides, the “MIC (µg/ml) E. fecalis” value in the test on E. fecalis (setting [1]) amounted to 2.5 µg/mL. In addition, the inhibitory constant (Ki) at B. subtilis Pol IIIC (read-out: Ki (µM) Pol IIIC) is 0.024 µM. Also, the “MIC (µg/ml) B. subtilis” value against B. subtilis (setting [1]) is 0.625 µg/mL. For the same compound, the “MIC (µg/ml) E. coli” value against E. coli was more than 20 µg/mL. For the same compound, the “MIC (µg/ml) S.aureus (Smith)” value against S.aureus (Smith) (setting [1]) is 1.25 µg/mL. In addition, the “MIC (µg/ml) S. aureus” value with S. aureus (setting [1]) amounted to 1.25 µg/mL.
For `CCc1cc(Nc2cc(=O)n(CCCCN3CCN(c4cc5c(cc4F)c(=O)c(C(=O)O)cn5CC)CC3)c(=O)[nH]2)ccc1C` [Compound 1, 3-{4-[1-(1-ethyl-3-carboxy-4-oxo-6-fluoro-7-quinolyl)-4-piperazinyl]butyl}-6-(3-ethyl-4-methylanilino)uracil], the MIC is 1.25 µg/mL (≈ 2.02 µM) in the test on E. fecium (setting [1]); 1.25 µg/mL (≈ 2.02 µM) with E. fecalis (setting [1]); 0.156 µg/mL (≈ 0.252 µM) with B. subtilis (setting [1]); more than 20 µg/mL in the test with E. coli; 0.625 µg/mL (≈ 1.01 µM) in the test on S.aureus (Smith) (setting [1]); 0.625 µg/mL (≈ 1.01 µM) in the test with S. aureus (setting [1]). For the same compound, the affinity at B. subtilis Pol IIIC (Ki (µM) Pol IIIC), expressed as Ki, was 0.024 µM.
As for `CCc1cc(Nc2cc(=O)n(CCCCCCCN3CCN(c4cc5c(cc4F)c(=O)c(C(=O)O)cn5C4CC4)CC3)c(=O)[nH]2)ccc1C` [Compound 8, 3-{7-[1-(1-cyclopropyl-3-carboxy-4-oxo-6-fluoro-7-quinolyl)-4-piperazinyl]heptyl}-6-(3-ethyl-4-methylanilino)uracil], the MIC in the test on E. fecium (setting [1]) was more than 80 µg/mL; in the test with E. fecalis (setting [1]), 10 µg/mL (≈ 14.9 µM); with B. subtilis (setting [1]), 0.313 µg/mL (≈ 0.465 µM); in the test with E. coli it was 40 µg/mL (≈ 59.5 µM); in the test with S.aureus (Smith) (setting [1]), 0.625 µg/mL (≈ 0.929 µM); in the test on S. aureus (setting [1]), 1.25 µg/mL (≈ 1.86 µM). This compound also registered an inhibition constant Ki on B. subtilis Pol IIIC (Ki (µM) Pol IIIC) of 0.013 µM.
With `CCc1cc(Nc2cc(=O)n(CCOCCN3CCN(c4cc5c(cc4F)c(=O)c(C(=O)O)cn5C4CC4)CC3)c(=O)[nH]2)ccc1C` [Compound 11, 3-{2-[1-(1-cyclopropyl-3-carboxy-4-oxo-6-fluoro-7-quinolyl)-4-piperazinyl]ethoxyethyl}-6-(3-ethyl-4-methylanilino)uracil], the MIC in the test on E. fecium (setting [1]) was 5 µg/mL (≈ 7.73 µM); with E. fecalis (setting [1]), 10 µg/mL (≈ 15.5 µM); with B. subtilis (setting [1]), 1.25 µg/mL (≈ 1.93 µM); in the test with E. coli, more than 80 µg/mL; with S.aureus (Smith) (setting [1]), 2.5 µg/mL (≈ 3.87 µM); with S. aureus (setting [1]), 5 µg/mL (≈ 7.73 µM). The same compound returned a Ki on B. subtilis Pol IIIC (Ki (µM) Pol IIIC) of 0.03 µM.
Take `CCc1cc(Nc2cc(=O)n(CCCCCN3CCN(c4cc5c(cc4F)c(=O)c(C(=O)O)cn5C4CC4)CC3)c(=O)[nH]2)ccc1C` [Compound 15, 3-{5-[1-(1-cyclopropyl-3-carboxy-4-oxo-6-fluoro-7-quinolyl)-4-piperazinyl]pentyl}-6-(3-ethyl-4-methylanilino)uracil]: the MIC amounted to 1.25 µg/mL (≈ 1.94 µM) with E. fecium (setting [1]); 0.625 µg/mL (≈ 0.969 µM) in the test on E. fecalis (setting [1]); 0.156 µg/mL (≈ 0.242 µM) in the test with B. subtilis (setting [1]); 5 µg/mL (≈ 7.75 µM) in the test on E. coli; 0.313 µg/mL (≈ 0.485 µM) with S.aureus (Smith) (setting [1]); 0.625 µg/mL (≈ 0.969 µM) with S. aureus (setting [1]). Also, at B. subtilis Pol IIIC (Ki (µM) Pol IIIC), the affinity, expressed as Ki, was 0.03 µM.
On to `Cc1ccc(Nc2cc(=O)n(CCCCN3CCN(c4cc5c(cc4F)c(=O)c(C(=O)O)cn5C4CC4)CC3)c(=O)[nH]2)cc1Cl` [Compound 64, 3-{4-[1-(1-cyclopropyl-3-carboxy-4-oxo-6-fluoro-7-quinolyl)-4-piperazinyl]butyl}-6-(3-chloro-4-methylanilino)uracil], for which the MIC came to 3.7 µg/mL (≈ 5.81 µM) with E. fecium (setting [1]); 1.87 µg/mL (≈ 2.94 µM) in the test with E. fecalis (setting [1]); 0.313 µg/mL (≈ 0.491 µM) in the test with B. subtilis (setting [1]); 7.5 µg/mL (≈ 11.8 µM) in the test with E. coli; 0.625 µg/mL (≈ 0.981 µM) in the test on S.aureus (Smith) (setting [1]); 1.25 µg/mL (≈ 1.96 µM) in the test with S. aureus (setting [1]). Moreover, the Ki on B. subtilis Pol IIIC (Ki (µM) Pol IIIC) came to 0.055 µM.
As to `Cc1ccc(Nc2cc(=O)n(CCCCN3CCN(c4cc5c(cc4F)c(=O)c(C(=O)O)cn5C4CC4)CC3)c(=O)[nH]2)cc1C` [Compound 65, 3-{4-[1-(1-cyclopropyl-3-carboxy-4-oxo-6-fluoro-7-quinolyl)-4-piperazinyl]butyl}-6-(3,4-dimethylanilino)uracil], the MIC was determined as 1.87 µg/mL (≈ 3.03 µM) in the test with E. fecium (setting [1]); 1.87 µg/mL (≈ 3.03 µM) in the test on E. fecalis (setting [1]); 0.23 µg/mL (≈ 0.373 µM) in the test with B. subtilis (setting [1]); 10 µg/mL (≈ 16.2 µM) with E. coli; 0.46 µg/mL (≈ 0.746 µM) in the test on S.aureus (Smith) (setting [1]); 0.95 µg/mL (≈ 1.54 µM) in the test with S. aureus (setting [1]). At B. subtilis Pol IIIC (Ki (µM) Pol IIIC), the Ki was found to be 0.095 µM.
As for `CCc1cc(Nc2ccc(NC(=O)N3CCN(c4cc5c(cc4F)c(=O)c(C(=O)O)cn5CC)CC3)c(=O)[nH]2)ccc1C` [Compound 77, 3-{[1-(1-ethyl-3-carboxy-4-oxo-6-fluoro-7-quinolyl)-4-piperazinyl]carboxamido}-6-(3-ethyl-4-methylanilino)-2-pyridone], the MIC with E. fecium was more than 80 µg/mL; in the test with E. fecalis it was more than 80 µg/mL; in the test on B. subtilis it was 5 µg/mL (≈ 8.49 µM); with E. coli, more than 80 µg/mL; in the test on S.aureus (Smith), 2.5 µg/mL (≈ 4.25 µM); in the test on S. aureus, 2.5 µg/mL (≈ 4.25 µM).

Values taken from EP1401829B1, “NOVEL HETEROCYCLIC ANTIBACTERIAL COMPOUNDS” (Microbiotix, Inc., priority 2001, dated 2002).
